Measurements published in patent US6881728B1, “14-β, 17-α-hydroxymethylandrostane derivatives as androgens” (Akzo Nobel N.V., priority 1999, dated 2005).

tested on: not given; experiment: not given

SMILES | melting point [°C]
C[C@]12CC[C@H]3[C@@H](CCC4=CC(=O)CC[C@@H]43)[C@H]1CC[C@H]2CO [Example 1, (14β,17α)-17-(Hydroxymethyl)estr-4-en-3-one] | 115 to 118
CC(=O)OC[C@@H]1CC[C@@H]2[C@@H]3CCC4=CC(=O)CC[C@]4(C)[C@H]3CC[C@]12C [Example 22a, (14β,17α)-17-[(Acetyloxy)methyl]androst-4-en-3-one] | 141 to 142

molecular target: T1, human androgen receptor (Homo sapiens, UniProt P10275); experiment: androgenic activity rating (procedures described above; which one underlies the rating is not stated); design: key: +: androgenic activity found; ++: high androgenic activity; +++: excellent androgenic activity
T1 construct: host or cells: MCF-7 cytosol (endogenous) or CHO cells transfected with hAR
T1 sequence (P10275 1-920): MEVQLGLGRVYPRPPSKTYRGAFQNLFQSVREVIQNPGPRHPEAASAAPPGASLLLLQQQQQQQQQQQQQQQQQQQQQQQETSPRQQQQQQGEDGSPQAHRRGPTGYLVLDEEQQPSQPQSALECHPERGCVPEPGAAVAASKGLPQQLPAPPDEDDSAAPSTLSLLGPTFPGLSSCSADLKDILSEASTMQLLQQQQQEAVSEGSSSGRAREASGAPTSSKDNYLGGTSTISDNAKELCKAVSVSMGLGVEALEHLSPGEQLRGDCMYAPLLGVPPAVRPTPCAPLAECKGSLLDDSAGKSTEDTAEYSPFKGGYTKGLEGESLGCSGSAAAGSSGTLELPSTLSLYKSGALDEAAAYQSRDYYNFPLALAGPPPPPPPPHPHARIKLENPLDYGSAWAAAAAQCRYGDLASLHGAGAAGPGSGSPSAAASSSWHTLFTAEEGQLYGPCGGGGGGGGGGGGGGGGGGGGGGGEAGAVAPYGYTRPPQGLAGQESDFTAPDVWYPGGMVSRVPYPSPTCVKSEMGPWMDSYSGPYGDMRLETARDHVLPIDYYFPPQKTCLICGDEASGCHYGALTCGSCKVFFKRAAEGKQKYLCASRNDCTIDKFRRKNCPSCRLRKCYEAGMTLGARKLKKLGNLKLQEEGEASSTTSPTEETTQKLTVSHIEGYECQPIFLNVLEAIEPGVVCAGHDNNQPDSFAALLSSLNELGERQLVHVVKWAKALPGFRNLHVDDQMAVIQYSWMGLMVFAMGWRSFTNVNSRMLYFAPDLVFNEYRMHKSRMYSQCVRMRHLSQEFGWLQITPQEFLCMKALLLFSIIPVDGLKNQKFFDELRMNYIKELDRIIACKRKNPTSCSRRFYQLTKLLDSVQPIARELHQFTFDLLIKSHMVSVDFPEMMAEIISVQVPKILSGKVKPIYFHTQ
Procedure: Androgenic activity can be measured in various ways. Thus, the potency of androgens can be determined in vitro using the cytoplasmic androgen receptor from human breast tumor cells (MCF-7 cell line); see Bergink, E. W. et al, Comparison of the receptor binding properties of nandrolone and testosterone under in vitro and in vivo conditions, J. Steroid Biochem. 22, 831-836 (1985). It is also possible to use Chinese hamster ovary (CHO) cells transfected with the human androgen receptor (incubation time 16 h, temperature 4° C.) and compared with the affinity of 5α-dihydrotestosterone [according to the procedure described by Bergink, E. W. et al, J. Steroid Biochem. 12, 1563-1570 (1983)]. The transactivative androgen activity of the compounds of the invention can be measured, e.g. in Chinese hamster ovary cells (CHO) transfected with the human androgen receptor (hAR), in combination with a mouse mammary tumor virus (MMTV), and luciferase […] (incubation time 16 h, temperature 37° C.) and compared with the activity of 5α-dihydrotestosterone [according to the procedure described by Schoonen, W. G. E. J. et al, Analyt. Biochem. 261, 222-224 (1998)]. For the in vivo potency determination of androgens the classical Hershberger test can be used. In this test the androgenic (increase in prostate weight) and anabolic activities [increase of the musculus levator ani (MLA)] of a compound are tested in immature castrated rats after daily administration for 7 days; see Hershberger, L. G. et al, Myotrophic activity of 19-Nortestosterone and other steroids determined by modified levator ani muscle method, Proceedings of the society for experimental biology and medicine 83, 175-180 (1953). Additionally, the effect of an androgenic compound on LH suppression can be tested in mature castrated rats according to Kumar, N. et al, The biological activity of 7alpha-methyl-19-nortestosterone is not amplified in male reproductive tract as is that of testosterone, Endocrinology 130, 3677-3683 (1992).
A plurality of compounds according to the invention were tested for androgenic activity (the procedures for which have been described above) and rated in the Table below according to the following scheme: • + androgenic activity found; • ++ high androgenic activity; • +++ excellent androgenic activity; • nd no data available

SMILES | Rating (androgenic activity)
C[C@]12CC[C@H]3[C@@H](CCC4=CC(=O)CC[C@@H]43)[C@H]1CC[C@H]2CO [Example 1, (14β,17α)-17-(Hydroxymethyl)estr-4-en-3-one] | +++
CC(=O)OC[C@@H]1CC[C@@H]2[C@@H]3CCC4=CC(=O)CC[C@]4(C)[C@H]3CC[C@]12C [Example 22a, (14β,17α)-17-[(Acetyloxy)methyl]androst-4-en-3-one] | +
C=CCC(O)C1CCC2C3C(C)CC4=CC(=O)CCC4C3CCC12C [Example 18g, (7α,14β,17α,20S)-20-Hydroxy-7-methyl-19,21-dinorchola-4,23-dien-3-one] | +
CCC1CC2(C)C(C(C)O)CCC2C2CCC3=C(CCC(=O)C3)C12 [Example 28a, (11β,14β,17α,20S)-11-Ethyl-20-hydroxy-19-norpregn-5(10)-en-3-one] | +
CCC(O)[C@@H]1CC[C@@H]2[C@@H]3CCC4=CC(=O)CC[C@@H]4[C@H]3CC[C@@]21C (stereo partly drawn) [Example 25b, [14β,17α(R)]-17-(1-Hydroxypropyl)estr-4-en-3-one] | +
CCC12CCC3C4CCC(=O)C=C4CCC3C1CCC2C(C)O [Example 32a, (14β,17α,20S)-13-Ethyl-20-hydroxy-18,19-dinorpregn-4-en-3-one] | +
CC[C@@H]1CC2=CC(=O)CC[C@@H]2[C@H]2CC[C@]3(C)[C@H](CO)CC[C@@H]3[C@H]12 [Example 14, (7α,14β,17α)-7-Ethyl-17-(hydroxymethyl)estr-4-en-3-one] | +
CCC(O)[C@@H]1CC[C@@H]2[C@H]3[C@H](CC[C@@]21C)[C@H]1CCC(=O)C=C1C[C@H]3C (stereo partly drawn) [Example 17b, [7α,14β,17α(R)]-17-(1-Hydroxypropyl)-7-methylestr-4-en-3-one] | +
C[C@@H]1CC2=CC(=O)CC[C@@H]2[C@H]2CC[C@@]3(C)[C@H](C[C@H](C)[C@H]3CO)[C@@H]21 [Example 9, (7α,14β,16β,17α)-17-(Hydroxymethyl)-7,16-dimethylestr-4-en-3-one] | ++
C[C@@H]1CC2=CC(=O)CC[C@@H]2[C@H]2CC[C@@]3(C)[C@H](C[C@@H](C)[C@H]3CO)[C@@H]21 [Example 8, (7α,14β,16α,17α)-17-(Hydroxymethyl)-7,16-dimethylestr-4-en-3-one] | +
CC[C@H](O)[C@@H]1CC[C@@H]2[C@@H]3CCC4=CC(=O)CC[C@@H]4[C@H]3CC[C@@]21C [Example 25a] | ++
C[C@]12CC[C@H]3[C@@H](CCC4=CC(=O)CC[C@@]43C)[C@H]1CC[C@H]2CO [Example 22b, (14β,17α)-17-(Hydroxymethyl)androst-4-en-3-one] | +
CC(O)C1CCC2C3C(C)CC4=CC(=O)CCC4C3CCC12C [Example 16a, (7α,14β,17α,20S)-20-Hydroxy-7-methyl-19-norpregn-4-en-3-one] | ++
CCC1CC2(C)C(C(C)O)CCC2C2CCC3=CC(=O)CCC3C12 [Example 29a, (11β,14β,17α,20S)-11-Ethyl-20-hydroxy-19-norpregn-4-en-3-one] | +
CCCC[C@H]1CC[C@H](C(=O)OC[C@@H]2CC[C@@H]3[C@H]4[C@H](CC[C@]23C)[C@H]2CCC(=O)C=C2C[C@H]4C)CC1 (relative stereo) [Example 33d, (7α,14β,17α)-17-[[[(trans-4-Butylcyclohexyl)carbonyl]oxy]methyl]-7-methylestr-4-en-3-one] | +
CC(O)C1CCC2C3CCC4=CC(=O)CCC4=C3CCC12C [Example 27b, (14β,17α,20R)-20-Hydroxy-19-norpregna-4,9-dien-3-one] | +
C[C@]12CC[C@@H]3C4=C(CC[C@H]3[C@H]1CC[C@H]2CO)CC(=O)CC4 [Example 2, (14β,17α)-17-(Hydroxymethyl)estr-5(10)-en-3-one] | ++
